The target of assay [1] is T1, ALDH9A1 (Homo sapiens, UniProt P49189).
T1 construct: recombinant ALDH9A1
Put plainly: inhibition of TMABAL oxidation by purified enzyme (NADH formation); preincubation and dialysis; also slow substrate. The class given is biochemical.

The target in assay [2] is T1, ALDH9A1. The experiment in a line: MST (RED-tris-NTA labelled enzyme); also NADH-formation activity assay. The class given is binding.
The target of assay [3] is T1, ALDH9A1. Put plainly: MST; also inhibition of TMABAL and ABAL oxidation at […]. The assay is classed as binding.

The structures appear in SMILES notation.

T1 sequence (P49189 whole entry): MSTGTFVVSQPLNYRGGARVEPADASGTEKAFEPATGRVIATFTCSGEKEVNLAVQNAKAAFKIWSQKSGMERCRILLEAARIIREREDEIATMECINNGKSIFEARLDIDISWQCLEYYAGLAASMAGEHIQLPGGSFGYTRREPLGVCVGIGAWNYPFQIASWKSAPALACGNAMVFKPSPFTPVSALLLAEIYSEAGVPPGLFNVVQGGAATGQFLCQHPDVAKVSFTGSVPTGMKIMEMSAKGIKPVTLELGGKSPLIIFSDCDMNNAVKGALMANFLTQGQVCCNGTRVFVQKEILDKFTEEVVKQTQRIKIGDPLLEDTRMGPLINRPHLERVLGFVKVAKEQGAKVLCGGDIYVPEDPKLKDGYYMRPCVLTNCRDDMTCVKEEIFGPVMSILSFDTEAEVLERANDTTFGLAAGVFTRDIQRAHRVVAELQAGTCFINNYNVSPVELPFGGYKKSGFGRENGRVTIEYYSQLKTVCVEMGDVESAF

In the case of `CC(C)=CCC/C(C)=C/CC/C(C)=C/C=O` [FCHO, farnesal], the IC50 – broadly, the point on the concentration scale where inhibition reaches its midpoint – on ALDH9A1 [1] is approximately 10 µM.

`C[N+](C)(C)CCCC=O` [TMABAL]: binding on ALDH9A1 [2] was characterised by a dissociation constant (Kd) of 11 µM.

Turning to `C[N+](C)(C)NCCC(=O)[O-]` [meldonium, 3-(2,2,2-trimethylhydrazinium) propionate], the Kd – broadly, the free concentration of one partner at which half of the binding sites on the other are occupied at equilibrium, for simple one-to-one binding – at ALDH9A1 [3] stood at 1200 µM. That is a millimolar value.

(Values after publication PMC10619140, “Thinking outside the CaaX-box: an unusual reversible prenylation on ALDH9A1” (RSC Chemical Biology, 2023).)
